Experimental data published in ChEMBL document CHEMBL5143699, “Identification of novel indole derivatives as highly potent AMPK activators with anti-diabetic profiles” (Bioorg Med Chem Lett, 2022).
Calls of active or inactive are those of the source. The rule behind the calls is not given here.

Experiments:
[1] = AUC in rat at 1 mg/kg, po; type: ADME, organism-based; parameters: dose 1 mg/kg, route po; details: in vivo
[2] = molecular target: Cytochrome P450 2C9 (Homo sapiens, UniProt P11712); test: Inhibition of CYP2C9 in human liver microsomes using tolbutamide as substrate; type: ADME, Microsome
[3] = Metabolic stability in rat liver microsomes assessed as compound remaining measured after 30 mins; type: ADME, Microsome; details: read-out: Stability
[4] = molecular target: Cytochrome P450 3A4 (Homo sapiens, UniProt P08684); test: Inhibition of CYP3A4 in human liver microsomes using terfenedine as substrate; type: ADME, Microsome
[5] = molecular target: Cytochrome P450 2D6 (Homo sapiens, UniProt P10635); test: Inhibition of CYP2D6 in human liver microsomes using dextromethorphan as substrate; type: ADME, Microsome
[6] = molecular target: Cytochrome P450 2C19 (Homo sapiens, UniProt P33261); test: Inhibition of CYP2C19 in human liver microsomes using mephenytoin as substrate; type: ADME, Microsome
[7] = […] of the compound in rat liver at 1 mg/kg, po or 0.5 mg/kg, iv; type: ADME, organism-based
[8] = molecular target: AMPK alpha2/beta2/gamma1 (Homo sapiens) (UniProt P54646+O43741+P54619); test: Activation of human recombinant AMPK A2/B2/G1 assessed as increase in AMPK phosphorylation using FL-peptide as substrate incubated for 120 mins by EZ reader method; type: protein-complex assay
[9] = […] of the compound in rat muscle at 1 mg/kg, po or 0.5 mg/kg, iv; type: ADME, organism-based
[10] = Metabolic stability in human liver microsomes assessed as compound remaining measured after 30 mins; type: ADME, Microsome; details: read-out: Stability
[11] = Protein binding in serum (unknown origin) assessed as unbound fraction by equilibrium dialysis assay; type: ADME, cell-free
[12] = molecular target: T1, Cytochrome P450 1A2 (Homo sapiens, UniProt P05177); test: Inhibition of CYP1A2 in human liver microsomes using 7-ethoxyresorufin as substrate; type: ADME, Microsome
T1 sequence (P05177 whole entry): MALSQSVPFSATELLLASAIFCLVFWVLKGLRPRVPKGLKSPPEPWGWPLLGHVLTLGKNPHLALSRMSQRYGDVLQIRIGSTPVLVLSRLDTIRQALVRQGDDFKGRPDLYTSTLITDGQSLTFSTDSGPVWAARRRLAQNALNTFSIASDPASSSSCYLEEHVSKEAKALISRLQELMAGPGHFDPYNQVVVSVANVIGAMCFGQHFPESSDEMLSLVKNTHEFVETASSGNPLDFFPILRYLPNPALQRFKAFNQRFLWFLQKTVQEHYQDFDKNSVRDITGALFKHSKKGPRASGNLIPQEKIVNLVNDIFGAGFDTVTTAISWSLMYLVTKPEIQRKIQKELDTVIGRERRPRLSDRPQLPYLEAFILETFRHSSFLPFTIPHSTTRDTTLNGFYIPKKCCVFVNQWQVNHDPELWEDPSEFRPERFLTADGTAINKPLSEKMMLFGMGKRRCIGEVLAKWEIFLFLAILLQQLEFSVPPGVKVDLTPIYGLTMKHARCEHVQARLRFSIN

[13] = Cmax in rat at 1 mg/kg, po or 0.5 mg/kg, iv; type: ADME, organism-based; parameters: dose 1 mg/kg, route po; details: in vivo
[14] = molecular target: T2, 5'-AMP-activated protein kinase (Mus musculus) (UniProt Q5EG47+Q8BRK8+Q6PAM0+O54950+Q91WG5+Q9R078+Q8BGM7); test: In vivo activation of AMPK in mouse liver assessed as increase in AMPKalpha phosphorylation level at 0.08 to 6.75 mg/kg,po by western blot method; type: functional, organism-based; details: dose 0.08-6.75 mg/kg, DDE = dose-dependent effect
[15] = test system: Mus musculus; test: Antidiabetic activity against po dosed type 2 diabetic KKAy mouse model assessed as acute glucose lowering effect measured for 1 to 6 hrs; type: functional, organism-based; details: time 1-6 hrs, DDE = dose-dependent effect
[16] = test system: Mus musculus; test: Antidiabetic activity against type 2 diabetic KKAy mouse model assessed as decrease in plasma glucose level administrated orally bid measured after 21 days of administration by automatic analyzer; type: functional, organism-based; details: route po, time 21.0 day, DDE = dose-dependent effect
[17] = test system: Mus musculus; test: Antidiabetic activity against type 2 diabetic KKAy mouse model assessed as increase in Akt phosphorylation in skeletal muscle at 1.5 to 6 mg/kg,po bid measured on 25 to 26 days after insulin injection by ELISA; type: functional, organism-based; details: dose 1.5-6 mg/kg, time 25-26 day
[18] = test system: Mus musculus; test: Antidiabetic activity against type 2 diabetic KKAy mouse model assessed as decrease in lipid accumulation in liver at 1.5 to 6 mg/kg,po bid measured on 25 to 26 days after insulin injection; type: functional, organism-based; details: dose 1.5-6 mg/kg, time 25-26 day
[19] = molecular target: T2, 5'-AMP-activated protein kinase (Mus musculus); test: In vivo activation of AMPK in mouse skeletal muscle assessed as increase in ACC phosphorylation level at 0.08 to 6.75 mg/kg,po by ELISA; type: functional, organism-based; details: Skeletal muscle tissue, dose 0.08-6.75 mg/kg, DDE = dose-dependent effect
[20] = test system: Mus musculus; test: Antidiabetic activity against type 2 diabetic KKAy mouse model assessed as decrease in HbA1c level administrated orally bid measured after 21 days of administration by automatic analyzer; type: functional, organism-based; details: route po, time 21.0 day, DDE = dose-dependent effect
[21] = molecular target: T3, 5'-AMP-activated protein kinase subunit beta-1 (Rattus norvegicus, UniProt P80386); test: Activation of rat liver AMPK-beta1 using SAMS peptide as substrate incubated for 10 mins by microplate reader assay; type: tissue-based
T3 sequence (P80386 whole entry): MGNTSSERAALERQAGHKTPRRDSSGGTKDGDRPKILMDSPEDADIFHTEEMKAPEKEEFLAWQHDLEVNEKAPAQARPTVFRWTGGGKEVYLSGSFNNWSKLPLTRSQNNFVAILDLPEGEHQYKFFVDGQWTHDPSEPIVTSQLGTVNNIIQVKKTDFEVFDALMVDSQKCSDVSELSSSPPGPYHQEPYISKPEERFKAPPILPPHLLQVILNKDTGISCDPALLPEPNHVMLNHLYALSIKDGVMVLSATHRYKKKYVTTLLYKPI

[22] = molecular target: T4, 5'-AMP-activated protein kinase subunit beta-2 (Homo sapiens, UniProt O43741); test: Activation of recombinant AMPK-beta2 (unknown origin) assessed as increase in AMPK phosphorylation by DELFIA fluorescence assay
T4 sequence (O43741 whole entry): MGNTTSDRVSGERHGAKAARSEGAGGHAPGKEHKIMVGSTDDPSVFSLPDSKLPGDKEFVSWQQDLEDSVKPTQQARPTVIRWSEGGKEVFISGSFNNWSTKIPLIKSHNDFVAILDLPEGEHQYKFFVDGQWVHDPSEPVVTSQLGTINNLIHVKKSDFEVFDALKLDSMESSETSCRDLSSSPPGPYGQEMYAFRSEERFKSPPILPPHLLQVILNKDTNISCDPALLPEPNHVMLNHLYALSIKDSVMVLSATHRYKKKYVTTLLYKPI

Chain of Cytochrome P450 2C19 (P33261 whole entry): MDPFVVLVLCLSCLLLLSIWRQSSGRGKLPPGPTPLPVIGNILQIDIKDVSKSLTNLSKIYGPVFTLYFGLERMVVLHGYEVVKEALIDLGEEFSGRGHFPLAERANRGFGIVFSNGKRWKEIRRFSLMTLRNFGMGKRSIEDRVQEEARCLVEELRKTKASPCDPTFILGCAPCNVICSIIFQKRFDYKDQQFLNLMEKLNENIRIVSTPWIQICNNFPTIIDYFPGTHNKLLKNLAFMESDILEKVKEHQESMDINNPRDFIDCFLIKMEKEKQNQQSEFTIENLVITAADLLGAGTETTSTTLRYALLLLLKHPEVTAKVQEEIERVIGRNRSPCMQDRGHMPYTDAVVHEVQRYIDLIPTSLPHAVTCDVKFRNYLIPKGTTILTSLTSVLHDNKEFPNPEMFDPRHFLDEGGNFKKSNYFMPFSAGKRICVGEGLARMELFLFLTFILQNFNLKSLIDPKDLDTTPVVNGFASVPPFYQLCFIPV
Chain of AMPK alpha2/beta2/gamma1 (Homo sapiens) (P54619 whole entry, looked up, one chain of several): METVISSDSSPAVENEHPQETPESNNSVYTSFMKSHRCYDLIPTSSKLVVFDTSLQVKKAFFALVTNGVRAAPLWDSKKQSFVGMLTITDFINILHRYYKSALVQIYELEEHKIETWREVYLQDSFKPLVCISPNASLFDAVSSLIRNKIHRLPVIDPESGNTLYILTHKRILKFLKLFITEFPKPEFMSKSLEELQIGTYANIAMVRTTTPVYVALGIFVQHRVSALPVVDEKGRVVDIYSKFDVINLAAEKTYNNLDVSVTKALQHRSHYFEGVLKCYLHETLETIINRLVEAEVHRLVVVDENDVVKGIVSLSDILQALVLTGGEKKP
Chain of AMPK alpha2/beta2/gamma1 (Homo sapiens) (P54646 whole entry, looked up, one chain of several): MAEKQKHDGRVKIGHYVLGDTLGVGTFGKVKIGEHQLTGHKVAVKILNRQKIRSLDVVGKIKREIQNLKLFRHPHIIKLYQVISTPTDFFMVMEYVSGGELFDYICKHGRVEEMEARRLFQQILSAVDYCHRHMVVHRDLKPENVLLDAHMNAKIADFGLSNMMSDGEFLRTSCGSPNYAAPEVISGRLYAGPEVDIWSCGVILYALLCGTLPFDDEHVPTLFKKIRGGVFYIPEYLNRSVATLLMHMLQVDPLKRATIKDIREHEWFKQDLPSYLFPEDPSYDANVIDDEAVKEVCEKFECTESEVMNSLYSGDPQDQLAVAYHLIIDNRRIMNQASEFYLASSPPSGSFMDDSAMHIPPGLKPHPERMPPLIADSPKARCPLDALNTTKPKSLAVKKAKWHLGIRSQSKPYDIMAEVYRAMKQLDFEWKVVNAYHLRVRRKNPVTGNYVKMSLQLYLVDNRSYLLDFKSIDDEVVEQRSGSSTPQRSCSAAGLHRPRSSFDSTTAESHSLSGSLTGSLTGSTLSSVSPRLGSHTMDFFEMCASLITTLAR
Chain of Cytochrome P450 3A4 (P08684 whole entry): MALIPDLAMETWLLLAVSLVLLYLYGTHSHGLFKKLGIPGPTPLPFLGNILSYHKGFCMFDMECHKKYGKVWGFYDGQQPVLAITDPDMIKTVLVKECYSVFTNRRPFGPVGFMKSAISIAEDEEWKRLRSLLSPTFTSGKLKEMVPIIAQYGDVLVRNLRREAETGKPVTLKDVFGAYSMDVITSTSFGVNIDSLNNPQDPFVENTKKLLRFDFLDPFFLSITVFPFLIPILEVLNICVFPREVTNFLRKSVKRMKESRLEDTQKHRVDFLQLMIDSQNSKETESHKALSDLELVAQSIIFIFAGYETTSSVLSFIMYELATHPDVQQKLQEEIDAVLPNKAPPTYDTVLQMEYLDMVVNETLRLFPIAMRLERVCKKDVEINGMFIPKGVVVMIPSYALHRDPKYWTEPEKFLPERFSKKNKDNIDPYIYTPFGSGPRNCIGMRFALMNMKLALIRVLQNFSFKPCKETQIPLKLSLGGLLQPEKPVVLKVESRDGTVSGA
Chain of Cytochrome P450 2D6 (P10635 whole entry): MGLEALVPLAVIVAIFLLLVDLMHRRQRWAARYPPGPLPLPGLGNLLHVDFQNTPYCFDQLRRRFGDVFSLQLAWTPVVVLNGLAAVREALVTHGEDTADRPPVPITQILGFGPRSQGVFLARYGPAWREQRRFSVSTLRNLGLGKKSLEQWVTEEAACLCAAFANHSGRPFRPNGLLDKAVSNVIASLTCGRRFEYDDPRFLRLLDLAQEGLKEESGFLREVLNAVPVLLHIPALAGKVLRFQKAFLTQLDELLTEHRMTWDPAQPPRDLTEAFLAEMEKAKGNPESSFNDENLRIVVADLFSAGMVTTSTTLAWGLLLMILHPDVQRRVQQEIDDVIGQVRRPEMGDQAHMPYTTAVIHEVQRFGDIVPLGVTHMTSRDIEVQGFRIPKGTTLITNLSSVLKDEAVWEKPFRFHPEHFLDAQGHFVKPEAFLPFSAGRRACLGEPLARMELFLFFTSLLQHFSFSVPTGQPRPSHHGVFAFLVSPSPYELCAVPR
Chain of Cytochrome P450 2C9 (P11712 whole entry): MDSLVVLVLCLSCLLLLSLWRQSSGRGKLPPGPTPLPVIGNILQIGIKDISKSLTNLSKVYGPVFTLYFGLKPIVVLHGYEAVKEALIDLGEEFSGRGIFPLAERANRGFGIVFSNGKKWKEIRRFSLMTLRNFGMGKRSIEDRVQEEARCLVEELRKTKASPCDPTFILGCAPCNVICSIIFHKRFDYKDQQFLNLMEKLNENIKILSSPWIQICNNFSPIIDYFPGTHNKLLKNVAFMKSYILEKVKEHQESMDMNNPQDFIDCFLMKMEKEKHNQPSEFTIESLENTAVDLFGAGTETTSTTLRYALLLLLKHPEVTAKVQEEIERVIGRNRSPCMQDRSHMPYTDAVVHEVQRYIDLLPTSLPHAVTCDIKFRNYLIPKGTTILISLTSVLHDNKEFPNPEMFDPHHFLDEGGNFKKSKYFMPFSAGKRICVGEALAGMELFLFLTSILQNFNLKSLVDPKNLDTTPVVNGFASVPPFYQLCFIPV

## CS(C)(=O)=Nc1ccc(-c2ccc(-c3nc4cc(O[C@@H]5CO[C@H]6[C@@H]5OC[C@H]6O)[nH]c4cc3F)cc2)nc1
[1]
  AUC: 111 ng·h/mL
[2]
  IC50: > 10 µM
[3]
  remaining at 0.5 h: 83%
[4]
  IC50: > 10 µM
[5]
  IC50: > 10 µM
[6]
  IC50: > 10 µM
[7]
  Kp: 2.19
[8]; filed as activator
  EC150: 0.0034 µM
[9]
  Kp: 0.98
[10]
  remaining at 0.5 h: > 99%
[11]
  fraction unbound: 0.072
[12]
  IC50: > 10 µM
[13]
  Cmax: 44.8 ng/mL

## O[C@@H]1CO[C@H]2[C@@H]1OC[C@H]2Oc1cc2nc(-c3ccc(N4CCOCC4)cc3)c(F)cc2[nH]1
[8]; filed as activator
  EC150: 0.0053 µM

## CS(C)(=O)=Nc1ccc(-c2ccc(-c3nc4cc(O[C@@H]5CO[C@H](CO)C5)[nH]c4cc3F)cc2)cc1
[14]
  Activity: Dde
[15]
  Activity: Dde
[1]
  AUC: 810 ng·h/mL
[3]
  remaining at 0.5 h: 90%
[16]
  Activity: Dde
[7]
  Kp: 7.14
[8]; filed as activator
  EC150: 0.001 µM
[17]
  Activity: Active
[18]
  Activity: Active
[9]
  Kp: 0.63
[19]
  Activity: Dde
[10]
  remaining at 0.5 h: 94%
[20]
  Activity: Dde
[11]
  fraction unbound: 0.011
[13]
  Cmax: 130 ng/mL

## Cn1c(O[C@@H]2CO[C@H]3[C@@H]2OC[C@H]3O)c(C#N)c2cc(-c3ccc(N4CCOCC4)cc3)c(Cl)cc21
[8]
  EC150: > 100 µM

## N#Cc1c(O[C@@H]2CO[C@H]3[C@@H]2OC[C@H]3O)[nH]c2cc(Cl)c(-c3ccc(N4CCOCC4)cc3)nc12
[8]; filed as activator
  EC150: 0.087 µM

## N#Cc1c(O[C@@H]2CO[C@H]3[C@@H]2OC[C@H]3O)[nH]c2ccc(-c3ccc(N4CCOCC4)cc3)cc12
[8]; filed as activator
  EC150: 0.38 µM

## COCCOc1ccc(-c2ccc(-c3nc4cc(O[C@@H]5CO[C@H]6[C@@H]5OC[C@H]6O)[nH]c4cc3F)cc2)cn1
[8]; filed as activator
  EC150: 0.016 µM

## COc1ccc(-c2ccc(-c3nc4cc(O[C@@H]5CO[C@H]6[C@@H]5OC[C@H]6O)[nH]c4cc3F)cc2)cc1
[8]; filed as activator
  EC150: 0.011 µM

## COCCOc1ccc(-c2ccc(-c3nc4cc(O[C@@H]5CO[C@H]6[C@@H]5OC[C@H]6O)[nH]c4cc3F)cc2)cc1
[8]; filed as activator
  EC150: 0.0073 µM
[11]
  fraction unbound: 0.002

## O=S1(=Nc2ccc(-c3ccc(-c4nc5cc(O[C@@H]6CO[C@H]7[C@@H]6OC[C@H]7O)[nH]c5cc4F)cc3)cc2)CCCC1
[1]
  AUC: 251 ng·h/mL
[3]
  remaining at 0.5 h: 86%
[6]
  IC50: 3.7 µM
[7]
  Kp: 3.34
[8]; filed as activator
  EC150: 0.002 µM
[9]
  Kp: 0.67
[10]
  remaining at 0.5 h: 98%
[11]
  fraction unbound: 0.01
[13]
  Cmax: 43 ng/mL

## N#CC1=C(O)C2C(c3ccc(-c4ccccc4O)cc3)=CSC2NC1=O (stereo unspecified)
[21]
  EC50: 0.8 µM

## N#Cc1c(O[C@@H]2CO[C@H]3[C@@H]2OC[C@H]3O)[nH]c2cc(Cl)c(-c3ccc(N4CCOCC4)cc3)cc12
[8]; filed as activator
  EC150: 0.039 µM

## O[C@@H]1CO[C@H]2[C@@H]1OC[C@H]2Oc1cc2nc(-c3ccc(-c4ccccc4)cc3)c(F)cc2[nH]1
[8]; filed as activator
  EC150: 0.017 µM

## CS(C)(=O)=Nc1ccc(-c2ccc(-c3nc4cc(O[C@@H]5CO[C@H]6[C@@H]5OC[C@H]6O)[nH]c4cc3F)cc2)cc1
[1]
  AUC: 288 ng·h/mL
[2]
  IC50: > 10 µM
[3]
  remaining at 0.5 h: 91%
[4]
  IC50: > 10 µM
[5]
  IC50: > 10 µM
[6]
  IC50: > 10 µM
[7]
  Kp: 2.4
[8]; filed as activator
  EC150: 0.001 µM
[9]
  Kp: 0.61
[10]
  remaining at 0.5 h: > 99%
[11]
  fraction unbound: 0.016
[12]
  IC50: > 10 µM
[13]
  Cmax: 68.7 ng/mL

## O=C(c1ccc(-c2ccc(-c3nc4cc(O[C@@H]5CO[C@H]6[C@@H]5OC[C@H]6O)[nH]c4cc3F)cc2)cc1)N1CCCC1
[6]
  IC50: 7.4 µM
[8]; filed as activator
  EC150: 0.0018 µM
[11]
  fraction unbound: 0.01

## O=C1NC2SC(Cl)=C(c3ccc4c(c3O)CCCC4)C2C(O)=C1c1ccccc1 (stereo unspecified)
[22]
  EC50: 1.3 µM

## O[C@@H]1CO[C@H]2[C@@H]1OC[C@H]2Oc1cc2nc(-c3ccc(N4CCOCC4)cc3)c(Cl)cc2[nH]1
[8]; filed as activator
  EC150: 0.0019 µM
